{"source": "PubChem BioAssay (NCI)", "assay_in_all_cases": "NCI anticancer screen, dose series, 384-well format", "key": {"U251 glioblastoma": {"test_system": "U251 glioblastoma"}, "SK-OV-3 ovarian": {"test_system": "SK-OV-3 ovarian"}, "NCI-H226 lung": {"test_system": "NCI-H226 lung"}, "MDA-MB-468 breast": {"test_system": "MDA-MB-468 breast"}, "A498 renal": {"test_system": "A498 renal"}, "MALME-3M melanoma": {"test_system": "MALME-3M melanoma"}, "HOP-92 NSCLC": {"test_system": "HOP-92 NSCLC"}, "SW-620 colon": {"test_system": "SW-620 colon"}, "A549 NSCLC": {"test_system": "A549 NSCLC"}, "SF-539 CNS": {"test_system": "SF-539 CNS"}, "SK-MEL-2 melanoma": {"test_system": "SK-MEL-2 melanoma"}, "RXF 393 renal": {"test_system": "RXF 393 renal"}, "MCF7 breast": {"test_system": "MCF7 breast"}, "MDA-MB-435 melanoma": {"test_system": "MDA-MB-435 melanoma"}, "UACC-62 melanoma": {"test_system": "UACC-62 melanoma"}, "HCC-2998 colon": {"test_system": "HCC-2998 colon"}, "MDA-MB-231 breast": {"test_system": "MDA-MB-231 breast"}, "TK-10 renal": {"test_system": "TK-10 renal"}, "SN12C renal": {"test_system": "SN12C renal"}, "K-562 leukemia": {"test_system": "K-562 leukemia"}, "CAKI-1 renal": {"test_system": "CAKI-1 renal"}, "T-47D breast": {"test_system": "T-47D breast"}, "CCRF-CEM leukemia": {"test_system": "CCRF-CEM leukemia"}, "UACC-257 melanoma": {"test_system": "UACC-257 melanoma"}, "NCI-H460 NSCLC": {"test_system": "NCI-H460 NSCLC"}, "KM12 colon": {"test_system": "KM12 colon"}, "BT-549 breast": {"test_system": "BT-549 breast"}, "SF-295 CNS": {"test_system": "SF-295 CNS"}, "HCT-116 colon": {"test_system": "HCT-116 colon"}}, "note": "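Abbreviation: GI50, concentration required for 50% inhibition of growth. TGI marks complete inhibition of growth.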"}
{"smiles": "COc1ccc(-c2c(-c3ccc(C#N)c(F)c3)nc(N3CCC(N)CC3)n(C)c2=O)cc1F", "values": [{"measurement": "TGI", "setting": "U251 glioblastoma", "result": 24.7, "unit": "µM"}, {"measurement": "GI50", "setting": "SK-OV-3 ovarian", "result": 12, "unit": "µM"}, {"measurement": "TGI", "setting": "SK-OV-3 ovarian", "result": 24.4, "unit": "µM"}, {"measurement": "GI50", "setting": "NCI-H226 lung", "result": 1.75, "unit": "µM"}, {"measurement": "TGI", "setting": "NCI-H226 lung", "result": 3.27, "unit": "µM"}, {"measurement": "GI50", "setting": "MDA-MB-468 breast", "result": 9.92, "unit": "µM"}, {"measurement": "TGI", "setting": "MDA-MB-468 breast", "result": 21.5, "unit": "µM"}, {"measurement": "GI50", "setting": "A498 renal", "result": 2.29, "unit": "µM"}, {"measurement": "TGI", "setting": "A498 renal", "result": 7.42, "unit": "µM"}, {"measurement": "GI50", "setting": "MALME-3M melanoma", "result": 2.46, "unit": "µM"}, {"measurement": "TGI", "setting": "MALME-3M melanoma", "result": 6.58, "unit": "µM"}, {"measurement": "GI50", "setting": "HOP-92 NSCLC", "result": 6.55, "unit": "µM"}, {"measurement": "TGI", "setting": "HOP-92 NSCLC", "result": 19.1, "unit": "µM"}, {"measurement": "GI50", "setting": "SW-620 colon", "result": 15.3, "unit": "µM"}, {"measurement": "TGI", "setting": "SW-620 colon", "result": 28.7, "unit": "µM"}, {"measurement": "GI50", "setting": "A549 NSCLC", "result": 16.7, "unit": "µM"}, {"measurement": "TGI", "setting": "A549 NSCLC", "result": 30.5, "unit": "µM"}, {"measurement": "GI50", "setting": "SF-539 CNS", "result": 13.8, "unit": "µM"}, {"measurement": "TGI", "setting": "SF-539 CNS", "result": 26.8, "unit": "µM"}, {"measurement": "GI50", "setting": "SK-MEL-2 melanoma", "result": 5.12, "unit": "µM"}, {"measurement": "TGI", "setting": "SK-MEL-2 melanoma", "result": 17.8, "unit": "µM"}, {"measurement": "GI50", "setting": "RXF 393 renal", "result": 2.69, "unit": "µM"}, {"measurement": "TGI", "setting": "RXF 393 renal", "result": 9.41, "unit": "µM"}, {"measurement": "GI50", "setting": "MCF7 breast", "result": 3.06, "unit": "µM"}, {"measurement": "TGI", "setting": "MCF7 breast", "result": 9, "unit": "µM"}, {"measurement": "GI50", "setting": "MDA-MB-435 melanoma", "result": 13.5, "unit": "µM"}, {"measurement": "TGI", "setting": "MDA-MB-435 melanoma", "result": 26.4, "unit": "µM"}, {"measurement": "GI50", "setting": "UACC-62 melanoma", "result": 2.18, "unit": "µM"}, {"measurement": "TGI", "setting": "UACC-62 melanoma", "result": 5.43, "unit": "µM"}, {"measurement": "GI50", "setting": "HCC-2998 colon", "result": 11, "unit": "µM"}, {"measurement": "TGI", "setting": "HCC-2998 colon", "result": 23, "unit": "µM"}, {"measurement": "GI50", "setting": "MDA-MB-231 breast", "result": 13.2, "unit": "µM"}, {"measurement": "TGI", "setting": "MDA-MB-231 breast", "result": 25.9, "unit": "µM"}, {"measurement": "GI50", "setting": "TK-10 renal", "result": 14.3, "unit": "µM"}, {"measurement": "TGI", "setting": "TK-10 renal", "result": 27.5, "unit": "µM"}, {"measurement": "GI50", "setting": "SN12C renal", "result": 12.9, "unit": "µM"}, {"measurement": "TGI", "setting": "SN12C renal", "result": 25.6, "unit": "µM"}, {"measurement": "GI50", "setting": "K-562 leukemia", "result": 11.8, "unit": "µM"}, {"measurement": "TGI", "setting": "K-562 leukemia", "result": 24.1, "unit": "µM"}, {"measurement": "GI50", "setting": "CAKI-1 renal", "result": 8.69, "unit": "µM"}, {"measurement": "TGI", "setting": "CAKI-1 renal", "result": 20.8, "unit": "µM"}, {"measurement": "GI50", "setting": "T-47D breast", "result": 10.4, "unit": "µM"}, {"measurement": "TGI", "setting": "T-47D breast", "result": 22.1, "unit": "µM"}, {"measurement": "GI50", "setting": "CCRF-CEM leukemia", "result": 13, "unit": "µM"}, {"measurement": "TGI", "setting": "CCRF-CEM leukemia", "result": 25.8, "unit": "µM"}, {"measurement": "GI50", "setting": "UACC-257 melanoma", "result": 1.71, "unit": "µM"}, {"measurement": "TGI", "setting": "UACC-257 melanoma", "result": 3.16, "unit": "µM"}, {"measurement": "GI50", "setting": "NCI-H460 NSCLC", "result": 3.41, "unit": "µM"}, {"measurement": "TGI", "setting": "NCI-H460 NSCLC", "result": 10.9, "unit": "µM"}, {"measurement": "GI50", "setting": "KM12 colon", "result": 13.1, "unit": "µM"}, {"measurement": "TGI", "setting": "KM12 colon", "result": 25.9, "unit": "µM"}, {"measurement": "GI50", "setting": "BT-549 breast", "result": 11.6, "unit": "µM"}, {"measurement": "TGI", "setting": "BT-549 breast", "result": 23.9, "unit": "µM"}, {"measurement": "GI50", "setting": "SF-295 CNS", "result": 16.8, "unit": "µM"}, {"measurement": "TGI", "setting": "SF-295 CNS", "result": 30.4, "unit": "µM"}, {"measurement": "GI50", "setting": "HCT-116 colon", "result": 6.86, "unit": "µM"}, {"measurement": "TGI", "setting": "HCT-116 colon", "result": 19.8, "unit": "µM"}]}
